# pIC50: −log10 of the molar value.
# What was measured:
# [1] = target: purified human, His-tagged PRC2 complex (Homo sapiens (Human), UniProt O75530); test: Hot Spot HMT assay of PRC2 enzymatic activity (tritiated methyl transfer from SAM to core histone); assay type: biochemical; conditions: 10 nM purified PRC2 complex, 0.05 mg/ml core histone H3, 1 uM 3H-SAM, 1 hr at 30° C.; read-out: IC50, Inhibition of PRC2-mediated Enzymatic Activity
# Procedure: Ten-point dose-response curves for compounds of the present invention were determined using a Hot Spot HMT assay (Reaction Biology Corp; see Horiuchi et al., Assay Drug Dev Technol. (2013) 4: 227-236 doi: 10.1089/adt.2012.480). The assay uses purified human, His-tagged PRC2 complex, including N-terminal His-tagged EZH2 enzyme, N-terminal Flag-tagged embryonic ectoderm development protein (EED), N-terminal His-tagged suppressor of zeste 12 (SUZ12), N-terminal His-tagged AEBP2, and N-terminal His-tagged RbAp48. In this assay, the transfer of the tritiated methyl group from radiolabeled S-adenosyl methionine (SAM) to purified core histone protein by EZH2 is quantitated after filtration to determine the activity of the core PRC2 complex in the presence and absence of compound.
# Briefly, compounds of the present invention were solubilized in DMSO and a series of 10, three-fold serial dilutions were made for each compound in 15% DMSO. The initial starting concentration for the serial dilutions of each compound was 1.0 μM. Control samples lacking compound, EZH2 enzyme or various reaction components also were prepared and processed in parallel with compound test samples. SAH (S-(5-adenosyl)-L-homocysteine) was used as a positive control for assay validation.
# An aliquot of each serial dilution of test compound was added to deep 384 well plate using Acoustic Technology instrument (Echo 550, LabCyte) containing reaction buffer (50 mM Tris-HCl (pH 8.)), 0.01% Brij35, 1 mM EDTA, 1 mM DTT, 1 mM PMSF and 1% DMSO), 10 nM purified PRC2 complex and 0.05 mg/ml core histone H3 in a 5 μl volume. The reaction was mixed gently and then pre-incubated for 20 min at 30° C. The enzymatic reaction was initiated by adding 1 uM S-Adenosyl-L-[methyl ^3H]methionine and incubated for 1 hr at 30° C. After 1 hr, the reaction product was detected using a filter binding method and the amount of tritiated H3 core histone was quantitated using a scintillation counter. The IC50 value for each compound was determined from each 10-point dose-response curve using GraphPad Prism software and the results for exemplary compounds of Formula (I) are shown in Table 5. Key: A=≤250 nM; B=>250 nM—≤500 nM; and C=>500 nM—≤2 μM.
# [2] = system: Karpas 422 cells expressing mutant EZH2 (Y641N); test: Karpas 422 cell viability (Cell Titre Glo) assay; assay type: cell-based, human; conditions: Homo sapiens, CTG viability, time point (Day 4, Day 7 or Day 11) not given, read-out: IC50, Inhibiting Proliferation of Cells Expressing an Activating Mutant Form of EZH2
# Procedure: Karpas 422 cell line is a human B cell non-Hodgkin's lymphoma cell line established from a patient having DLBCL. This EZH2 heterozygotic cell line expresses a mutant form of EZH2 enzyme (Y641N) that increases histone H3 methylation and this mutation has been implicated in the tumorgenesis of lymphomas, such as DLBCL.
# Karpas 422 cells (PHE cat no., 06101702) were cultured in RPMI medium supplemented with 20% fetal bovine serum and 1% penicillin/1% streptomycin and plated at a density of 1000 cells/90 μl/well in 96 well white assay plates. A dose response curve for compounds of the present invention was determined by adding a 10 μl aliquot of stock solutions of varying concentrations of compounds to the same medium in each well, over a concentration range of 10 μM using 3-fold dilutions to a final concentration of 1.5 nM. The plates were incubated at 37° C. for predetermined time periods, Day 4, Day 7, or Day 11, and the viability of the cells was measured using a CTG assay kit (Cell Titre Glo; Promega cat. no G7573) on Day 4 and Day 7 in accordance with the manufacturer's instructions.
# For the viability assay for the Day 11 plates, the plates were subjected to centrifugation at 1100 rpm for five minutes on Day 7 and the supernatant was removed by aspiration. The cells were resuspended in 90 μl aliquot of the appropriate growth medium lacking the compound followed by addition of 10 μl of a 10× stock of the same compound at the same concentration. The viability of the Day 11 cells was measured using the CTG assay kit described above in accordance with the manufacturer's instructions. The IC50 values for each compound at each predetermined time point were calculated using Graph pad PRISM software and the results are shown in Table 7. Key: A=≤250 nM; B=>250 nM-≤500 nM; C=>500 nM-≤5 μM and N.D.=not determined.
# [3] = system: PRC2-mediated histone H3 methylation (H3 Lys27 trimethylation) in Pfeiffer cells expressing mutant EZH2 (A677G); test: Tri-Methyl Histone H3 (Lys 27) sandwich ELISA in Pfeiffer cells; assay type: cell-based, human; conditions: Homo sapiens; Pfeiffer cells, 96 hours incubation, ELISA; read-out: IC50, Inhibition of EZH2-mediated Histone H3 Trimethylation
# Excerpt: The Pfeiffer cell line was established from a […] from a patient having metastatic diffuse large B-cell lymphoma (DLBCL). This cell line expresses a mutant form of the EZH2 enzyme (A677G) that results in enhanced EZH2 activity leading to increased methylation of histone H3 Lys27. Increased trimethylation of histone H3 Lys27 is believed to be implicated in tumorgenesis and poor clinical prognosis in lymphomas (McCabe et al., (2012) Nature 492:108-112).
# Inhibition of PRC2-mediated histone H3 methylation by compounds of Formula (I) was measured by ELISA using a Tri-Methyl Histone H3 (Lys 27) Sandwich ELISA Kit (Cell Signaling Tech #7866C) in accordance with the manufacturer's instructions. Briefly, Pfeiffer cells were cultured in RPMI medium supplemented with 10% fetal bovine serum and 1% penicillin and 1% streptomycin in 96 well culture plates at 37° C. to a density of 8000 cells/90 μl/well and the cells were harvested. A series of 3-fold serial dilutions of each test compound of Formula (I) were prepared in RPMI medium and added to the cells at final concentrations ranging from 1 μM to 0.15 nM. The plates were incubated at 37° C. for 96 hours.
# After incubation, the cells were pelleted by centrifugation in a pre-cooled 4° C. rotor at 1,100 rpm for 10 min and the supernatant was removed by aspiration. The cell pellet was resuspended in 55 μl of Lysis Buffer (0.4M HCl) and incubated on ice with periodic shaking for 30 minutes. The lysed cells were subjected to centrifugation at 4,200 rpm for 10 min at 4° C. and the supernatant containing acid-soluble proteins was collected and the remainder discarded. The acid-soluble proteins were brought to a neutral pH by the addition of 20 μl of Neutralization Buffer (1 M Sodium phosphate, dibasic (pH 12.5), 2.5 mM DTT and 1 mM PMSF) and the neutralized lysates were analyzed by ELISA.
# A 65 μl aliquot of each cell lysate was added to a well of a microwell strip, the microwells were sealed using tape and incubated either at 37° C. for two hours or at 4° C. overnight. After incubation, the tape was removed at the microwells were washed four times using 200 μl of 1× Wash Buffer. To each washed microwell, a 100 μl aliquot of an anti-trimethyl histone H3 Lys27 Detection Antibody solution was added and the microwells were incubated at 37° C. for one hour. The Detection Antibody solution was removed by aspiration and the wells were washed four times each using 200 μl of 1× Wash Buffer.
# A 100 μl aliquot of an HRP-linked secondary antibody was added to each well, the wells were sealed with tape and incubated at 37° C. for 30 min. The HRP-linked secondary antibody solution was removed by aspiration and the wells were washed four times using 200 μl of 1× Wash Buffer. A 100 μl aliquot of a TMB substrate was added to each well, the wells were sealed with tape and incubated at 37° C. for 10 min or 25° C. for 30 min. The reaction was stopped by the addition of 100 μl aliquot of a STOP solution and the plate was shaken briefly. The degree of histone H3 trimethylation was determined using a spectrophotometric readout by measuring the absorbance at 450 nm and then calculating the amount of trimethylated histone H3. Key: A=≤250 nM; B=>250 nM-≤500 nM; and C=>500 nM-≤5 μM.
# Sequence of purified human, His-tagged PRC2 complex (Q15910 whole entry): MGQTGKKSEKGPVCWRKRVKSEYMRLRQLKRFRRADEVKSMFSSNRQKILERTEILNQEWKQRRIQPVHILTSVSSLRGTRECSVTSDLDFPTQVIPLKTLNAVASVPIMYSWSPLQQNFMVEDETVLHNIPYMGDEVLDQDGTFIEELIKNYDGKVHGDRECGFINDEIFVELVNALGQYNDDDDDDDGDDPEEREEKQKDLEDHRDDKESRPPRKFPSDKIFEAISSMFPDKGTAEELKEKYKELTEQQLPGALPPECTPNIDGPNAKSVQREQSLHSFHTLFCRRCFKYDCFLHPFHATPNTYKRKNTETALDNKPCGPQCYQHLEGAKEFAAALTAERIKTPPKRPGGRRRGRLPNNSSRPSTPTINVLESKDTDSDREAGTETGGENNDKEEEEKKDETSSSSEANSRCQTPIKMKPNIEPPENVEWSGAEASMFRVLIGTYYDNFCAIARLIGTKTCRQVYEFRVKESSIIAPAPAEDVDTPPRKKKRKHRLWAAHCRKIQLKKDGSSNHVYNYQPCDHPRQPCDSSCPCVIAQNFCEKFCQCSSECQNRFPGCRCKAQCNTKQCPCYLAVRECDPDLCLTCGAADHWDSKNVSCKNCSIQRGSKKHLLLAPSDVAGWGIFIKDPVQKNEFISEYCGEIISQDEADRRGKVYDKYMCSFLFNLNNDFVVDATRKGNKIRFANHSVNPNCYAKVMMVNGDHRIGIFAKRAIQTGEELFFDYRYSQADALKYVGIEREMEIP
# Sequence of purified human, His-tagged PRC2 complex (O75530 whole entry): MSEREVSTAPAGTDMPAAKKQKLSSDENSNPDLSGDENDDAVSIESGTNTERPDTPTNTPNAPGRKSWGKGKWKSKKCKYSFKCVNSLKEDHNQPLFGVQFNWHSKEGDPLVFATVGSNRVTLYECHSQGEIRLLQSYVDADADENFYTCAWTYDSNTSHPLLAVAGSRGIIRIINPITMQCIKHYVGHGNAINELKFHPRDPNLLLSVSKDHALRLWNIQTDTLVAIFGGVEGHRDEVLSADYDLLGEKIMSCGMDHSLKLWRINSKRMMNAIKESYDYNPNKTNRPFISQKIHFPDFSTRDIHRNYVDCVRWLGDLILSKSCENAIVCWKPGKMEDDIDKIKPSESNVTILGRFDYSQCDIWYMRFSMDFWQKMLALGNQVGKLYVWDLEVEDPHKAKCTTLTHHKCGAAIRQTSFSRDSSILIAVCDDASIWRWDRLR
# Sequence of purified human, His-tagged PRC2 complex (Q15022 whole entry partner): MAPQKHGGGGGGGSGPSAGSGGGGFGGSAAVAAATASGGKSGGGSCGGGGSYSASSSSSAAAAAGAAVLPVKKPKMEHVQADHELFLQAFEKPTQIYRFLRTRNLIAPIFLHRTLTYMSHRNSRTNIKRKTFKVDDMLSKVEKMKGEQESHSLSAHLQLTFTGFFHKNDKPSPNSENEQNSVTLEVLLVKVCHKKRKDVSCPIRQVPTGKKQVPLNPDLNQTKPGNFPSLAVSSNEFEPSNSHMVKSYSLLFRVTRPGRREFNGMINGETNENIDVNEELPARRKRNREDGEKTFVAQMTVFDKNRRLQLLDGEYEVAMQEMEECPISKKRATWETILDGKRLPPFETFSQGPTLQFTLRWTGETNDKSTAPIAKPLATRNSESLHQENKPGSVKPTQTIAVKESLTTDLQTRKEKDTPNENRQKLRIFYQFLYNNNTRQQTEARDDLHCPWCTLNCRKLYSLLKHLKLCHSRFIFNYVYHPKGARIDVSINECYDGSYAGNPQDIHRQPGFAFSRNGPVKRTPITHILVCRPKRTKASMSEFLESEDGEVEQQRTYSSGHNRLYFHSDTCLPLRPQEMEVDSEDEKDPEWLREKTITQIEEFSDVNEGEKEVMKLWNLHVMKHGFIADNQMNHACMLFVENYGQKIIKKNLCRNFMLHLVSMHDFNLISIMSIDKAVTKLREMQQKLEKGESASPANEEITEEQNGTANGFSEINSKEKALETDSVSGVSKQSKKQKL
# Sequence of purified human, His-tagged PRC2 complex (Q6ZN18 whole entry partner): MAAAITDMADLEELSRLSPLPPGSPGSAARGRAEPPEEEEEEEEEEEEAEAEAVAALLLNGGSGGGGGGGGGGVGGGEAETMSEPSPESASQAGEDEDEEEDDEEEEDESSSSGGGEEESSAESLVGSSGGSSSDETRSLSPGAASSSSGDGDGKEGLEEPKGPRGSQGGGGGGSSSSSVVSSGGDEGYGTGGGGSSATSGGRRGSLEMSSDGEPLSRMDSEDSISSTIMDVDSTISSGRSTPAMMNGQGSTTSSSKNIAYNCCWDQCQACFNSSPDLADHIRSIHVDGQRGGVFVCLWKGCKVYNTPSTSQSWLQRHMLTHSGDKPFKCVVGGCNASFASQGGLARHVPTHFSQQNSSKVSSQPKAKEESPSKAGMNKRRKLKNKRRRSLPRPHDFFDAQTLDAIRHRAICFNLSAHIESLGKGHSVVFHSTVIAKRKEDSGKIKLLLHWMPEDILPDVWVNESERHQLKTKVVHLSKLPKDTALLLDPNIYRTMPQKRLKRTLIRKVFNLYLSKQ
# Sequence of purified human, His-tagged PRC2 complex (Q09028 whole entry partner): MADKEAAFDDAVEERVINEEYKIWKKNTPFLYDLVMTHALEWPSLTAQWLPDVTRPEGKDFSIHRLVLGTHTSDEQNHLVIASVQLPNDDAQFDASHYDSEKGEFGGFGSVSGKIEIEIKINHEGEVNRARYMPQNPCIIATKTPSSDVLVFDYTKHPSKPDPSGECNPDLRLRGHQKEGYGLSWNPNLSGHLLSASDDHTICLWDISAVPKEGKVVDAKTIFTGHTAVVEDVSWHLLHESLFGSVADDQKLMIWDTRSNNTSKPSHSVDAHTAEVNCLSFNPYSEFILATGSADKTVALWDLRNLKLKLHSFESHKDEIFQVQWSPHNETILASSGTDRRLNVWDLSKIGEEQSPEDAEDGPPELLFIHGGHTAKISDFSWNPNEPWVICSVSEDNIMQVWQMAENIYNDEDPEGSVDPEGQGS
Structure (SMILES),pIC50 [1],pIC50 [2],pIC50 [3]
"Cc1cc(-c2cnc(NCc3c(F)ccc4c3CCO4)n3cc(-c4cnco4)nc23)n(C)n1 [Example 45, 8-(1,3-dimethyl-1H-pyrazol-5-yl)-N-((5-fluoro-2,3-dihydrobenzofuran-4-yl)methyl)-2-(oxazol-5-yl)imidazo[1,2-c]pyrimidin-5-amine]",> 6.60,> 6.60,6.30 to 6.60
Cc1cc(-c2cnc(NCc3c(F)ccc4occc34)n3cc(CN)nc23)n(C)n1 [Example 24],5.70 to 6.30,6.30 to 6.60,6.30 to 6.60
"Cn1nccc1-c1cnc(NCc2c(F)ccc3c2CCO3)n2cc(CN3CCC3)nc12 [Example 29, 2-(azetidin-1-ylmethyl)-N-((5-fluoro-2,3-dihydrobenzofuran-4-yl)methyl)-8-(1-methyl-1H-pyrazol-5-yl)imidazo[1,2-c]pyrimidin-5-amine]",5.70 to 6.30,5.30 to 6.30,5.30 to 6.30
"Cc1cc(-c2cnc(NCc3c(F)ccc4c3CCO4)n3cc(CNC4CC4)nc23)n(C)n1 [Example 33, 2-((cyclopropylamino)methyl)-8-(1,3-dimethyl-1H-pyrazol-5-yl)-N-((5-fluoro-2,3-dihydrobenzofuran-4-yl)methyl)imidazo[1,2-c]pyrimidin-5-amine]",5.70 to 6.30,6.30 to 6.60,6.30 to 6.60
"Cc1cc(-c2cnc(NCc3c(F)ccc4c3CCO4)n3cc(C(N)C4CC4)nc23)n(C)n1 (stereo not drawn) [Example 41, 2-(amino(cyclopropyl)methyl)-8-(1,3-dimethyl-1H-pyrazol-5-yl)-N-((5-fluoro-2,3-dihydrobenzofuran-4-yl)methyl)imidazo[1,2-c]pyrimidin-5-amine]",> 6.60,> 6.60,> 6.60
"Cn1nccc1-c1cnc(NCc2c(F)ccc3c2CCO3)n2cc(CN)nc12 [Example 18, 2-(aminomethyl)-N-((5-fluoro-2,3-dihydrobenzofuran-4-yl)methyl)-8-(1-methyl-1H-pyrazol-5-yl)imidazo[1,2-c]pyrimidin-5-amine]",> 6.60,> 6.60,> 6.60
"Cc1cc(-c2cnc(NCc3c(F)ccc4c3CCO4)n3cc(CNC4CCC4)nc23)n(C)n1 [Example 30, 2-((cyclobutylamino)methyl)-8-(1,3-dimethyl-1H-pyrazol-5-yl)-N-((5-fluoro-2,3-dihydrobenzofuran-4-yl)methyl)imidazo[1,2-c]pyrimidin-5-amine]",5.70 to 6.30,> 6.60,6.30 to 6.60
"COc1ccc(-c2cnc(NCc3c(F)ccc4c3CCO4)n3cc(CN)nc23)c(C)n1 [Example 20, 2-(aminomethyl)-N-((5-fluoro-2,3-dihydrobenzofuran-4-yl)methyl)-8-(6-methoxy-2-methylpyridin-3-yl)imidazo[1,2-c]pyrimidin-5-amine]",> 6.60,> 6.60,6.30 to 6.60
"Cc1cc(-c2cnc(NCc3cccc4c3CCO4)n3cc(CN)nc23)n(C)n1 [Example 23, 2-(aminomethyl)-N-((2,3-dihydrobenzofuran-4-yl)methyl)-8-(1,3-dimethyl-1H-pyrazol-5-yl)imidazo[1,2-c]pyrimidin-5-amine]",5.70 to 6.30,5.30 to 6.30,5.30 to 6.30
"Cc1ncccc1-c1cnc(NCc2c(F)ccc3c2CCO3)n2cc(C(C)N)nc12 (stereo not drawn) [Example 39, 2-(1-aminoethyl)-N-((5-fluoro-2,3-dihydrobenzofuran-4-yl)methyl)-8-(2-methylpyridin-3-yl)imidazo[1,2-c]pyrimidin-5-amine]",> 6.60,> 6.60,> 6.60
"CC(N)c1cn2c(NCc3c(F)ccc4c3CCO4)ncc(-c3cc(C#N)nn3C)c2n1 (stereo not drawn) [Example 40, 5-(2-(1-aminoethyl)-5-(((5-fluoro-2,3-dihydrobenzofuran-4-yl)methyl)amino)imidazo[1,2-c]pyrimidin-8-yl)-1-methyl-1H-pyrazole-3-carbonitrile]",> 6.60,> 6.60,> 6.60
"Cc1cc(CN(C)C)ccc1-c1cnc(NCc2c(F)ccc3c2CCO3)n2cc(C(C)N)nc12 (stereo not drawn) [Example 37, 2-(1-aminoethyl)-8-(4-((dimethylamino)methyl)-2-methylphenyl)-N-((5-fluoro-2,3-dihydrobenzofuran-4-yl)methyl)imidazo[1,2-c]pyrimidin-5-amine]",> 6.60,> 6.60,> 6.60
"Cn1nc(C(F)(F)F)cc1-c1cnc(NCc2c(F)ccc3c2CCO3)n2cc(CN)nc12 [Example 15, 2-(aminomethyl)-N-((5-fluoro-2,3-dihydrobenzofuran-4-yl)methyl)-8-(1-methyl-3-(trifluoromethyl)-1H-pyrazol-5-yl)imidazo[1,2-c]pyrimidin-5-amine]",6.30 to 6.60,> 6.60,> 6.60

# Reference: patent US12252493B2, “Imidazo[1,2-c]pyrimidine derivatives as PRC2 inhibitors for treating cancer” (Mirati Therapeutics, Inc., priority 2019, dated 2025)
